Test results as given in PubChem BioAssay (NCI).
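Test compounds were applied to cells in 96-well plates for 48 hours at 5 doses. The concentration for 50% growth inhibition is given as GI50. TGI marks complete inhibition of growth.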

Legend:
Test in all cases: NCI anticancer screen, dose series, 48 h
CCRF-CEM leukemia = test system: CCRF-CEM leukemia
HOP-62 NSCLC = test system: HOP-62 NSCLC
HT29 colon = test system: HT29 colon
IGROV1 ovarian = test system: IGROV1 ovarian
MALME-3M melanoma = test system: MALME-3M melanoma
NCI-H23 lung = test system: NCI-H23 lung
RXF 393 renal = test system: RXF 393 renal
SK-MEL-2 melanoma = test system: SK-MEL-2 melanoma
SN12C renal = test system: SN12C renal
SNB-19 CNS = test system: SNB-19 CNS

Structure (SMILES)	TGI (CCRF-CEM leukemia) [µM]	TGI (HOP-62 NSCLC) [µM]	TGI (HT29 colon) [µM]	TGI (IGROV1 ovarian) [µM]	TGI (MALME-3M melanoma) [µM]	TGI (NCI-H23 lung) [µM]	TGI (RXF 393 renal) [µM]	TGI (SK-MEL-2 melanoma) [µM]	TGI (SN12C renal) [µM]	TGI (SNB-19 CNS) [µM]	GI50 (CCRF-CEM leukemia) [µM]	GI50 (HOP-62 NSCLC) [µM]	GI50 (HT29 colon) [µM]	GI50 (IGROV1 ovarian) [µM]	GI50 (MALME-3M melanoma) [µM]	GI50 (NCI-H23 lung) [µM]	GI50 (RXF 393 renal) [µM]	GI50 (SK-MEL-2 melanoma) [µM]	GI50 (SN12C renal) [µM]	GI50 (SNB-19 CNS) [µM]
CC(=O)Nc1ccc(/C=C/c2ccc(NC(=O)Nc3ccc(/C=C/c4ccc(NC(C)=O)cc4S(=O)(=O)O)c(S(=O)(=O)O)c3)cc2S(=O)(=O)O)c(S(=O)(=O)O)c1	> 100	> 100	> 100	> 100	> 100	> 100	> 100	> 100	> 100	> 100	–	–	–	–	–	–	–	–	–	–
COCc1nc2c(OC)c(-c3nc4nc(N5CCN(C)CC5)ccc4[nH]3)cc(OC)c2n1C	45.6	> 100	62	> 100	35.6	> 100	57.6	41.9	> 100	> 100	–	–	–	–	–	–	–	–	–	–
CC1CC2=C(S(=O)(=O)c3ccccc3)CC(S(=O)(=O)c3ccccc3)(S(=O)(=O)c3ccccc3)CC21 (stereo not drawn)	> 100	> 100	> 100	> 100	–	> 100	> 100	> 100	> 100	> 100	–	–	–	–	–	–	–	–	–	–
COCCCNc1nc(N)c(C#N)c(C#N)c1C#N	6.67	> 10	> 10	> 10	> 10	> 10	> 10	> 10	> 10	> 10	–	–	–	–	–	–	–	–	–	–
CCOC(=O)c1ccc(N[C@@H]2c3cc4c(cc3C(c3cc(OC)c(O)c(OC)c3)[C@H]3C(=O)OCC32)OCO4)cc1O (stereo partly drawn)	> 100	1.56	1.32	> 43.5	14.2	4.26	6.77	1.83	–	> 25.9	–	–	–	–	–	–	–	–	–	–
CC1CCCCNC1=S (stereo not drawn)	> 10	> 10	> 10	> 10	> 10	> 10	> 10	> 10	> 10	> 10	–	–	–	–	–	–	–	–	–	–
COc1cc2oc(-c3ccc(O)cc3)c(OC)c(=O)c2c(O)c1OC	> 100	> 100	> 100	> 100	> 100	> 100	> 100	> 100	> 100	> 100	15.2	42.3	31.1	76.6	28.4	63.4	29	39.2	33.7	> 100
CCOC(=O)CNC(=O)N(CC)C12CC3CC(CC(C3)C1)C2	388	266	204	524	278	419	388	205	414	430	–	–	–	–	–	–	–	–	–	–
COc1ccccc1CNCCCN1C(=O)c2ccc3c4c(ccc(c24)C1=O)C(=O)N(CCCNCCNCCCN)C3=O	56.8	14.2	11	15.9	3.2	5.59	7.12	6.49	8.07	11.8	3.17	2.46	2.07	3.69	1.61	1.72	1.65	2.67	2.09	2.18
CCOC(=O)Cn1c(=O)ccn(COCCO)c1=O	> 100	> 100	> 100	> 100	> 100	> 100	> 100	> 100	> 100	> 100	–	–	–	–	–	–	–	–	–	–
COc1ccc(S(=O)(=O)c2ccccc2[N+](=O)[O-])cc1	> 100	> 100	> 100	> 100	> 100	> 100	> 100	> 100	> 100	> 100	–	–	–	–	–	–	–	–	–	–
C/C(=N/NC(N)=S)c1ccc[nH]1	> 100	> 100	> 100	> 100	> 100	> 100	> 100	> 100	> 100	> 100	–	–	–	–	–	–	–	–	–	–
CCC(=O)Oc1ccc2c(c1)c(=O)c1c(NCCCN(C)C)ccc3nnn2c31	2.01	16.6	11.6	13.9	17	20.3	15.5	26.4	15.3	17.3	–	–	–	–	–	–	–	–	–	–
